Each block holds one compound with its values, some of them ahead of it.
Assays:
[1] = tested on: K562 cells; assay: Cell proliferation assay Method B, K562; type: cell-based; conditions: Homo sapiens, CML, 72 hours, read-out: antiproliferative activity IC50, K562
Method: (§1) Cancer cell lines were plated at 5,000 to 10,000 per well in 96-well flat bottomed plates with various concentration of compounds. The cells were incubated with compounds for 72 hours in the presence of 0.5% of fetal bovine serum. Growth inhibition was accessed by adenosine triphosphate (ATP) content assay using Promega CellTiter-Glo kit. Promega CellTiter-Glo kit is an ATP monitoring system based on firefly luciferase. Briefly, 16 μl of mammalian cell lysis and substrate solution was added to 84 μl of culture medium per well to lyse the cells and stabilize the ATP. The mixture was shaken and incubated for 30 minutes and subsequently the luminescence was measured.

[2] = tested on: MV-4-11 cells; assay: Cell proliferation assay Method B, MV-4-11; type: cell-based; conditions: Homo sapiens, MV4-11, AML, 72 hours, read-out: antiproliferative activity IC50, MV-4-11
Method: as §1

[3] = tested on: H1993 cells; assay: Cell proliferation assay Method A (ATPlite), H1993; type: cell-based; conditions: Homo sapiens, NCI-H1993, 72 hours, read-out: antiproliferative activity IC50, H1993
Method: Cancer cell lines were plated at 5,000 to 10,000 per well in 96-well flat bottomed plates with various concentration of compounds. The cells were incubated with compounds for 72 hours in the presence of 0.5% of fetal bovine serum. Growth inhibition was accessed by adenosine triphosphate (ATP) content assay using Perkin Elmer ATPlite kit. ATPlite is an ATP monitoring system based on firefly luciferase. Briefly, 25 μl of mammalian cell lysis solution was added to 50 μl of phenol red-free culture medium per well to lyse the cells and stabilize the ATP. 25 μl of substrate solution was then added to the well and subsequently the luminescence was measured.

[4] = target: T1, PI3Kδ (p110δ/p85α) (Homo sapiens, UniProt O00329); assay: PI3Kδ fluorescence polarization assay; type: biochemical; conditions: 10 μM ATP
T1 construct: N-terminal histidine-tagged recombinant full-length human p110δ; His tag (N); made in house; host or cells: Baculovirus-infected Sf9 insect cells
Method: The proteins are purified by one-step affinity chromatography using glutathione-agarose. […] The reaction product was then mixed with a PIP3 detector protein and the fluorescent PIP3 probe. Polarization (mP) values decrease as fluorescent probe binding to the PIP3 detector is displaced by PIP3 produced by enzymatic activity and the amount of unbound fluorescent probe in the mixture increases. Polarization degrees (mP) value was determined using microplate reader with background subtraction.

[5] = tested on: P388 D1 cells; assay: Cell proliferation assay Method B, P388 D1; type: cell-based; conditions: P388D1, Mouse Lymphoma, 72 hours, read-out: antiproliferative activity IC50, P388 D1
Method: as §1

[6] = target: T2, PI3Kγ (p120γ) (Homo sapiens, UniProt P48736); assay: PI3Kγ TR-FRET (HTRF) assay; type: biochemical; conditions: 10 μM ATP
T2 construct: His tag (N); made in house; host or cells: Baculovirus-infected Sf9 insect cells
Text: The proteins are purified by one-step affinity chromatography using glutathione-agarose.

[7] = tested on: HL-60 cells; assay: Cell proliferation assay Method B, HL-60; type: cell-based; conditions: Homo sapiens, AML, 72 hours, read-out: antiproliferative activity IC50, HL-60
Method: as §1

[8] = tested on: SUP-B15 cells; assay: Cell proliferation assay Method B, SUP-B15; type: cell-based; conditions: Homo sapiens, ALL, 72 hours, read-out: antiproliferative activity IC50, SUP-B15
Method: as §1

[9] = tested on: glioblastoma xenografts; conditions: oral dosage; Folkes et al. 2008; cited from earlier work
[10] = tested on: CaPan2 cells; assay: Cell proliferation assay Method B, CaPan2; type: cell-based; conditions: Homo sapiens, Capan-2, Pancreas, 72 hours, read-out: antiproliferative activity IC50, CaPan2
Method: as §1

[11] = tested on: H292 cells; assay: Cell proliferation assay Method B, H292; type: cell-based; conditions: Homo sapiens, NCI-H292, NSCLC, 72 hours, read-out: antiproliferative activity IC50, H292
Method: as §1

[12] = tested on: LN-Cap cells; assay: Cell proliferation assay Method B, LN-Cap; type: cell-based; conditions: Homo sapiens, LNCaP, Prostate, 72 hours, read-out: antiproliferative activity IC50, LN-Cap
Method: as §1

[13] = tested on: H460 cells; assay: Cell proliferation assay Method B, H460; type: cell-based; conditions: Homo sapiens, NCI-H460, NSCLC, 72 hours, read-out: antiproliferative activity IC50, H460
Method: as §1

[14] = tested on: SWI-116 cells; assay: Cell proliferation assay Method B, SWI-116; type: cell-based; conditions: Colon, 72 hours, read-out: antiproliferative activity IC50, SWI-116
Method: as §1

[15] = tested on: OVCAR-5 cells; assay: Cell proliferation assay Method B, OVCAR-5; type: cell-based; conditions: Homo sapiens, Ovarian, 72 hours, read-out: antiproliferative activity IC50, OVCAR-5
Method: as §1

[16] = tested on: PC-3 cells; assay: Cell proliferation assay Method B, PC-3; type: cell-based; conditions: Homo sapiens, Prostate, 72 hours, read-out: antiproliferative activity IC50, PC-3
Method: as §1

[17] = tested on: WiDr cells; assay: Cell proliferation assay Method B, WiDr; type: cell-based; conditions: Homo sapiens, Colon, 72 hours, read-out: antiproliferative activity IC50, WiDr
Method: as §1

[18] = tested on: H358 cells; assay: Cell proliferation assay Method B, H358; type: cell-based; conditions: Homo sapiens, NCI-H358, NSCLC, 72 hours, read-out: antiproliferative activity IC50, H358
Method: as §1

[19] = tested on: T-84 cells; assay: Cell proliferation assay Method B, T-84; type: cell-based; conditions: Homo sapiens, T84, Colon, 72 hours, read-out: antiproliferative activity IC50, T-84
Method: as §1

[20] = tested on: SW620 cells; assay: Cell proliferation assay Method B, SW620; type: cell-based; conditions: Homo sapiens, SW-620, Colon, 72 hours, read-out: antiproliferative activity IC50, SW620
Method: as §1

[21] = tested on: CFPAC-1 cells; assay: Cell proliferation assay Method B, CFPAC-1; type: cell-based; conditions: Homo sapiens, Pancreas, 72 hours, read-out: antiproliferative activity IC50, CFPAC-1
Method: as §1

[22] = tested on: Calu6 cells; assay: Cell proliferation assay Method B, Calu6; type: cell-based; conditions: Homo sapiens, Calu-6, NSCLC, 72 hours, read-out: antiproliferative activity IC50, Calu6
Method: as §1

[23] = tested on: SW403 cells; assay: Cell proliferation assay Method B, SW403; type: cell-based; conditions: Homo sapiens, SW-403, Colon, 72 hours, read-out: antiproliferative activity IC50, SW403
Method: as §1

[24] = tested on: A549 cells; assay: Cell proliferation assay Method B, A549; type: cell-based; conditions: Homo sapiens, NSCLC, 72 hours, read-out: antiproliferative activity IC50, A549
Method: as §1

[25] = tested on: H2122 cells; assay: Cell proliferation assay Method B, H2122; type: cell-based; conditions: Homo sapiens, NCI-H2122, NSCLC, 72 hours, read-out: antiproliferative activity IC50, H2122
Method: as §1

T2 sequence (P48736 whole entry): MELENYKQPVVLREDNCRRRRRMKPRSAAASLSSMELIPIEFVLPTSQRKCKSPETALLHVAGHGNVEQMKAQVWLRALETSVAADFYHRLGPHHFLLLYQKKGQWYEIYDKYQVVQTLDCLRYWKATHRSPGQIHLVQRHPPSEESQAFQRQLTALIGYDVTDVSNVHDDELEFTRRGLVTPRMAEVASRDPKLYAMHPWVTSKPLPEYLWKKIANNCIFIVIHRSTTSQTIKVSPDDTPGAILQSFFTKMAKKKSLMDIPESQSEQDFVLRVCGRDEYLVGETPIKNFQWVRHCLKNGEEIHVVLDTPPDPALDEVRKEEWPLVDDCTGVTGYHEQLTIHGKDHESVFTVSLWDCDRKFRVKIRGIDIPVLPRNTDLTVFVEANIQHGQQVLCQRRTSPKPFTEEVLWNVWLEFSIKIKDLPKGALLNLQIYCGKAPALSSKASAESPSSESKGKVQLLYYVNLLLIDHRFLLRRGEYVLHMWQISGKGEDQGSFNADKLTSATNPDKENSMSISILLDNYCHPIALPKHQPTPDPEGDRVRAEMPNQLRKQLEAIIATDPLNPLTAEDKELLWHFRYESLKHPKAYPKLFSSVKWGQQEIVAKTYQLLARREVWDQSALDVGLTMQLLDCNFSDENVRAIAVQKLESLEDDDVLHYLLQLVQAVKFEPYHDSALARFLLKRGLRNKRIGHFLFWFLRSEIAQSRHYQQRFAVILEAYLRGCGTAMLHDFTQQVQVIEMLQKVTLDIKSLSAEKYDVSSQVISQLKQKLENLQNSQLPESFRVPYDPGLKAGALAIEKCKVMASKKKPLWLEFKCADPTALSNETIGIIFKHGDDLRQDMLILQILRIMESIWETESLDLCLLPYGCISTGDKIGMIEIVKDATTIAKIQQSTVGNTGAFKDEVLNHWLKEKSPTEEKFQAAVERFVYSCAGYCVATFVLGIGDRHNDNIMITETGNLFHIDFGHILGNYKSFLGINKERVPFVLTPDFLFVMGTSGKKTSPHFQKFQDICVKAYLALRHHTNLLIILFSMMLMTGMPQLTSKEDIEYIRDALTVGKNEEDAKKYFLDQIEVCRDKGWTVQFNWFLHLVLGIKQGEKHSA
T1 sequence (O00329 whole entry): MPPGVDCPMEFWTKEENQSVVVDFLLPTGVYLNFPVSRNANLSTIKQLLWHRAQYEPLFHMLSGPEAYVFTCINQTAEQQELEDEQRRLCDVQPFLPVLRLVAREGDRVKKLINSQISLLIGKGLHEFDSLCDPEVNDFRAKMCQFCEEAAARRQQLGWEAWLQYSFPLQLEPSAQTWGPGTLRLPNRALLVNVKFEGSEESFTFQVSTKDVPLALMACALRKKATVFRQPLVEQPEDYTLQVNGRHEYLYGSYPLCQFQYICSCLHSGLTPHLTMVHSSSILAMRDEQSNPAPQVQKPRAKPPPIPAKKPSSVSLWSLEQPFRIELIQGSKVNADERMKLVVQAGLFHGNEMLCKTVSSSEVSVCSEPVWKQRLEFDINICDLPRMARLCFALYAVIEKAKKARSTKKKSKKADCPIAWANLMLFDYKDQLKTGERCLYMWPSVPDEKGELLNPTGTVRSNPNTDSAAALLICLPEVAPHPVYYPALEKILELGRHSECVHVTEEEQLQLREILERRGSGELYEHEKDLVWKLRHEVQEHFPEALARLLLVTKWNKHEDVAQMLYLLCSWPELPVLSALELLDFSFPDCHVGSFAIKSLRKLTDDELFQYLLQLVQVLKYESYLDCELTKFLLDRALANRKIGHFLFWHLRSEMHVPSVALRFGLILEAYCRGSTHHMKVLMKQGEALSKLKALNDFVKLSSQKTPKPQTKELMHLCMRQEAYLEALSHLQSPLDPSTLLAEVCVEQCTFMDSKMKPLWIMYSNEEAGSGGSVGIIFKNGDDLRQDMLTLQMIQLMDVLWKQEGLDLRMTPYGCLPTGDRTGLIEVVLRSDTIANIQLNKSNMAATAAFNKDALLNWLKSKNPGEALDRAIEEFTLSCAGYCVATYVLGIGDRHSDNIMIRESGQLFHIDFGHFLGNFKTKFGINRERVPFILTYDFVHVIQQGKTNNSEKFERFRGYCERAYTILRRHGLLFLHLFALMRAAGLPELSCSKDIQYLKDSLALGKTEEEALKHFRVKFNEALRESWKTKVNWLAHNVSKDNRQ
T1 sequence (P27986 whole entry partner): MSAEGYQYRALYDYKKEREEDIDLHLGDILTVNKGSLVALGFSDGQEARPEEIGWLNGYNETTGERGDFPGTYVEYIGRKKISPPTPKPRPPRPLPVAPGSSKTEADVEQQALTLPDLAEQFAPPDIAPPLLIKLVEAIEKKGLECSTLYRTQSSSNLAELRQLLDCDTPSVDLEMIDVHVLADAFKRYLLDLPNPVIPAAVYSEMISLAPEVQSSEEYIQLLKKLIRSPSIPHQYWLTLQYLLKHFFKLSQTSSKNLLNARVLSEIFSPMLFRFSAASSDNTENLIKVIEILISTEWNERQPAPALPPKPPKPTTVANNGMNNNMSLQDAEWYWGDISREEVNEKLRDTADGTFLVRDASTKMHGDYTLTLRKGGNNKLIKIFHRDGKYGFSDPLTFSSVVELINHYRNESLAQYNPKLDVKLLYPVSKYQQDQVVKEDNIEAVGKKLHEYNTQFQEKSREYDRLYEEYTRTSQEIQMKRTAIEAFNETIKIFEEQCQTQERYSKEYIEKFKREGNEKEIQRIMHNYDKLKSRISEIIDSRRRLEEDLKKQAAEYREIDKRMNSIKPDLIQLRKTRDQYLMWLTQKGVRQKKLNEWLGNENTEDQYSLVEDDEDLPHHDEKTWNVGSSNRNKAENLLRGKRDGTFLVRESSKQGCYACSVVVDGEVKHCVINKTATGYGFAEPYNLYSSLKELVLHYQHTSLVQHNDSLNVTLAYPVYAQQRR

IC50 [1]: 0.01 to 0.1 µM
IC50 [2]: < 0.01 µM
IC50 [3]: < 0.1 µM
IC50 [4]: < 0.1 µM
IC50 [5]: < 0.01 µM
IC50 [6]: 0.1 to 1 µM
IC50 [7]: < 0.01 µM
Structure (SMILES): CN(Cc1cc2nc(-c3ccc(N)cc3)nc(N3CCOCC3)c2s1)c1ncc(C(=O)NO)cn1 [Compound 150, 2-(((2-(4-aminophenyl)-4-morpholinothieno[3,2-d]pyrimidin-6-yl)methyl)(methyl)amino)-N-hydroxypyrimidine-5-carboxamide]
IC50 [8]: < 0.01 µM

Structure (SMILES): CS(=O)(=O)N1CCN(Cc2cc3nc(-c4cccc5[nH]ncc45)nc(N4CCOCC4)c3s2)CC1 [GDC-0941, reference compound]
IC50 [1]: > 10 µM
tumor suppression in glioblastoma xenografts [9]: tumor suppression
IC50 [10]: > 10 µM
IC50 [11]: 1 to 10 µM
IC50 [12]: 0.1 to 1 µM
IC50 [2]: 1 to 10 µM
IC50 [13]: > 10 µM
IC50 [14]: > 10 µM
IC50 [15]: 0.1 to 1 µM
IC50 [16]: 1 to 10 µM
IC50 [17]: > 10 µM
IC50 [5]: 1 to 10 µM
IC50 [18]: 1 to 10 µM
IC50 [19]: 1 to 10 µM
IC50 [7]: 0.1 to 1 µM
IC50 [20]: > 10 µM
IC50 [21]: > 10 µM
IC50 [22]: > 10 µM
IC50 [23]: > 10 µM
IC50 [24]: 1 to 10 µM
IC50 [25]: 1 to 10 µM

Reference: US8906909B2 (Curis, Inc., priority 2009, dated 2014)
